Measured values: ChEMBL document CHEMBL1144587, “Synthesis and antiviral activity of C-fluoro-branched cyclopropyl nucleosides” (Eur J Med Chem, 2007)

Assays:
Format in all cases: functional, organism-based
[1] = system: Human immunodeficiency virus 1; assay: Antiviral activity against HIV1 in MT4 cells; conditions: Human immunodeficiency virus 1, MT4
Human alphaherpesvirus 1 = assay: Antiviral activity against HSV1 in CCL81 cells; conditions: Human alphaherpesvirus 1, CCL 81
Human alphaherpesvirus 2 = assay: Antiviral activity against HSV2 in CCL81 cells; conditions: Human alphaherpesvirus 2, CCL 81
Human betaherpesvirus 5 = assay: Antiviral activity against HCMV AD169; conditions: Human betaherpesvirus 5, AD169

SMILES	EC50 [1] [µM]	EC50 (Human alphaherpesvirus 1) [µM]	EC50 (Human alphaherpesvirus 2) [µM]	EC50 (Human betaherpesvirus 5) [µM]
C[C@]1(CO)C[C@]1(F)n1ccc(N)nc1=O (racemic)	> 100	> 100	> 100	> 100
C[C@]1(CO)C[C@@]1(F)n1ccc(=O)[nH]c1=O (racemic)	> 100	> 100	> 100	43
Cc1cn([C@]2(F)C[C@]2(C)CO)c(=O)[nH]c1=O (racemic)	35	> 100	> 100	> 100
Cc1cn([C@@]2(F)C[C@]2(C)CO)c(=O)[nH]c1=O (racemic)	89	> 100	> 100	51.4
C[C@]1(CO)C[C@]1(F)n1cnc2c(N)ncnc21 (racemic)	> 100	67	> 100	71
C[C@]1(CO)C[C@@]1(F)n1cnc2c(N)ncnc21 (racemic)	> 100	87	> 100	> 100
C[C@]1(CO)C[C@@]1(F)n1ccc(N)nc1=O (racemic)	65	> 100	> 100	> 100
C[C@]1(CO)C[C@]1(F)n1ccc(=O)[nH]c1=O (racemic)	19.4	> 100	> 100	10.6
Nc1nc2c(ncn2COC(CO)CO)c(=O)[nH]1 [GANCICLOVIR]		1.5	1.5	1.01
Cc1cn([C@H]2C[C@H](N=[N+]=[N-])[C@@H](CO)O2)c(=O)[nH]c1=O [ZIDOVUDINE]	0.0008			
